Results reported in paper PMC11882969 (Nature Communications, 2025).
Values joined by “and” are separate entries in the source; they are usually repeats but may differ in a detail not shown here. Equal values may be shown once.

Assays:
hCB1 [1] = target: T1, hCB1 (Homo sapiens, UniProt P21554); experiment: bioSensAll ebBRET signaling profiling, hCB1; type: cell-based; set-up: host or cells: HEK293SL cells, transient PEI transfection; conditions: for Emax: normalized to CP-55,940
hCB1 [2] = target: T1, hCB1; experiment: Tango β-arrestin-2 recruitment, HTLA cells, CB1R; type: cell-based; set-up: expressed in transfected cells; host or cells: HTLA cells (gift of R. Axel), transient transfection
hCB1 [3] = target: T1, hCB1; experiment: Lance Ultra cAMP accumulation assay, CHO cells; type: cell-based; set-up: expressed in transfected cells;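 also: human CB1R stably expressed in CHO cells, ligands co-incubated with forskolin at room temperature, read-out is lowering of forskolin-stimulated cAMP accumulation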
hCB2 = hCB2 (Homo sapiens, UniProt P34972); experiment: TRUPATH BRET2 GoA dissociation, HEK293T; type: cell-based; set-up: expressed in transfected cells; host or cells: HEK293T cells (ATCC: CRL-3216), transient co-transfection; conditions: for functional response, concentration-response point (FigS7e, normalized): Log[drug], replicate columns
Sequence of hCB2 (P34972 whole entry): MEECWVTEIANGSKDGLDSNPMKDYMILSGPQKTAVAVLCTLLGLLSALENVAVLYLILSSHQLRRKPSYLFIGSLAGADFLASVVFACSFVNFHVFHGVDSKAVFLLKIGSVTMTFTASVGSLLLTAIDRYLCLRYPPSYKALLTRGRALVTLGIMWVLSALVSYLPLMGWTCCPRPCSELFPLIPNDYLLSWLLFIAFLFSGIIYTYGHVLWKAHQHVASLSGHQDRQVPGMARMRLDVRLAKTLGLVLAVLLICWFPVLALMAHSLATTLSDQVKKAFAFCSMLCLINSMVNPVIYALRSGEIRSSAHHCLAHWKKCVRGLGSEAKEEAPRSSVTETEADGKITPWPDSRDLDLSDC

CB1 (rCB1) = CB1 (rCB1) (Rattus norvegicus, UniProt P20272); experiment: Radioligand competition binding, [3H]-CP-55,940, rat brain membranes
Sequence of CB1 (rCB1) (P20272 whole entry): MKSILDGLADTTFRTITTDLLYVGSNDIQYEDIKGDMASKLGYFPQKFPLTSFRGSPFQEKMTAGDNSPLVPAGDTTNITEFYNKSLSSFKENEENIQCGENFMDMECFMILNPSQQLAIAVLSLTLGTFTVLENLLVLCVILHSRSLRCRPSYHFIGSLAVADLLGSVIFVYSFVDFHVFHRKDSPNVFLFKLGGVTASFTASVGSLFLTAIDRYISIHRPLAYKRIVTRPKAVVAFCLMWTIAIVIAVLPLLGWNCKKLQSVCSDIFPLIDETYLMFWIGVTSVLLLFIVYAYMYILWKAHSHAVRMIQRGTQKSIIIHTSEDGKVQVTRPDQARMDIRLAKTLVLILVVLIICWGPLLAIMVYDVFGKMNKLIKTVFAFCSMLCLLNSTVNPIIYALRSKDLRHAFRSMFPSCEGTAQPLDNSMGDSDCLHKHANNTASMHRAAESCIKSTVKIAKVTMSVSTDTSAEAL

T1 sequence (P21554 whole entry): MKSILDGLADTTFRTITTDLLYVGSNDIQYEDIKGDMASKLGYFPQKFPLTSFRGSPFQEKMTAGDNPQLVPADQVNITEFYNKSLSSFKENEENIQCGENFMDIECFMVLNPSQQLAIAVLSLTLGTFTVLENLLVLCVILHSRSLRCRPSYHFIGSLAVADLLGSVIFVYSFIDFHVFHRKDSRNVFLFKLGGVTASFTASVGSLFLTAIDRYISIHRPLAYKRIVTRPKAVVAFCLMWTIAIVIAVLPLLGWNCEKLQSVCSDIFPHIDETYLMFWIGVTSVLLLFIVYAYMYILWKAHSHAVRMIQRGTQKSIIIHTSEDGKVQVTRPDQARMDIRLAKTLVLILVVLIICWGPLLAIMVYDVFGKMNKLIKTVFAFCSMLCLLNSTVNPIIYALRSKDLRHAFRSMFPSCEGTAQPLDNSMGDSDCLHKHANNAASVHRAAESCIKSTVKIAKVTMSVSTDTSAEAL

Compound: COC(=O)C(C)(NC(=O)c1cc(C)n(-c2cccc(C(F)(F)F)c2)n1)c1cccs1 (centres unmarked) [‘4042]
- EC50 (hCB1 [1]; read-out: EC50 [95% CI], hCB1 Gz): 0.43 nM
- Emax (hCB1 [1]; read-out: Emax [95% CI], hCB1 Barr2 + GRK2): 72%
- Emax (hCB1 [1]; read-out: Emax [95% CI], hCB1 G13): 64%
- Emax (hCB1 [1]; read-out: Emax [95% CI], hCB1 G15): 105%
- Emax (hCB1 [1]; read-out: Emax [95% CI], hCB1 Gi2): 101%
- Emax (hCB1 [1]; read-out: Emax [95% CI], hCB1 GoB): 103%
- Emax (hCB1 [1]; read-out: Emax [95% CI], hCB1 Gz): 97%
- Emax (hCB1 [2]; HTLA, hCB1, read-out: Tango ß-arrestin recruitment Emax): 102%
- response, replicate values of concentration-response curve (FigS7f) (hCB1 [2]; Log[drug], M = -4.52): 7.067 and -6.331 and 5.4951 and 8.221 and 8.314 and -13.0772 and 26.9747 and 17.871 and 12.4553 and 121.329 and 105.672 and 117.884
- response, replicate values of concentration-response curve (FigS7f) (hCB1 [2]; Log[drug], M = -5): -3.086 and 3.974 and -30.8966 and 0.657 and 12.6131 and 6.151 and 33.0168 and 23.9031 and -6.308 and 64.2077 and 47.075 and 77.367
- response at Log[drug], M -5 (FigS4e) (hCB1 [2]; Log[drug], M = -5, individual replicates): 105.219 and 109.279 and 117.533 and 125.309 and 97.6126 and 107.099 and 99.9992 and 108.6 and 92.9311 and 106.141 and 96.6922 and 121.582
- response, replicate values of concentration-response curve (FigS7f) (hCB1 [2]; Log[drug], M = -5.52): -43.7244 and -3.669 and 10.2865 and 56.4831 and 26.3341 and 31.5757 and 34.4515 and 25.7521 and 21.276 and 49.6996 and 52.3788 and 22.9617
- response at Log[drug], M -5.52 (FigS4e) (hCB1 [2]; Log[drug], M = -5.52, individual replicates): 101.394 and 114.732 and 120.488 and 108.55 and 90.8381 and 89.995 and 132.472 and 109.506 and 88.5962 and 99.4965 and 84.8551 and 98.2296
- response, replicate values of concentration-response curve (FigS7f) (hCB1 [2]; Log[drug], M = -6): 45.905 and 18.3989 and 8.994 and 37.6798 and 48.3885 and 1.626 and 39.9683 and 51.123 and 11.4551 and 62.3486 and 38.1624 and 52.7798
- response at Log[drug], M -6 (FigS4e) (hCB1 [2]; Log[drug], M = -6, individual replicates): 110.2 and 110.608 and 113.923 and 102.851 and 70.7652 and 82.3944 and 91.1468 and 90.7286 and 85.6996 and 85.6798 and 84.3272 and 95.3395
- response, replicate values of concentration-response curve (FigS7f) (hCB1 [2]; Log[drug], M = -6.52): 48.7063 and 31.7717 and 10.7428 and 2.793 and 31.788 and 27.608 and 19.4978 and 35.1184 and 41.787 and 72.0632 and 23.3444 and 56.7531
- response at Log[drug], M -6.52 (FigS4e) (hCB1 [2]; Log[drug], M = -6.52, individual replicates): 101.401 and 93.7884 and 111.126 and 102.386 and 76.6593 and 76.4337 and 80.9673 and 77.6716 and 90.47 and 82.2224 and 76.8121 and 78.3428
- response, replicate values of concentration-response curve (FigS7f) (hCB1 [2]; Log[drug], M = -7): 45.8923 and 39.1109 and -32.4811 and 3.271 and 1.931 and -6.456 and 21.6196 and 13.8396 and 19.3159 and 108.005 and 18.4598 and 4.043
- response at Log[drug], M -7 (FigS4e) (hCB1 [2]; Log[drug], M = -7, individual replicates): 101.996 and 90.2881 and 92.9617 and 98.4638 and 67.7319 and 66.2817 and 76.3076 and 71.3692 and 69.3631 and 70.7817 and 73.5528 and 86.8411
- response, replicate values of concentration-response curve (FigS7f) (hCB1 [2]; Log[drug], M = -7.52): 6.205 and 16.8525 and 13.7723 and 78.1261 and 25.2327 and 15.4263 and 3.028 and 19.2351 and -2.458 and 66.2308 and 22.6883 and 80.2832
- response at Log[drug], M -7.52 (FigS4e) (hCB1 [2]; Log[drug], M = -7.52, individual replicates): 85.8169 and 81.0399 and 77.0438 and 77.8353 and 74.3661 and 62.598 and 69.4576 and 65.014 and 61.4855 and 54.8485 and 65.2396 and 54.8221
- response at Log[drug], M -8 (FigS4e) (hCB1 [2]; Log[drug], M = -8, individual replicates): 64.9332 and 70.1108 and 76.4142 and 63.9273 and 43.1923 and 49.5865 and 49.0423 and 55.5064 and 60.3508 and 56.2009 and 53.2123 and 59.8164
- response at Log[drug], M -8.52 (FigS4e) (hCB1 [2]; Log[drug], M = -8.52, individual replicates): 34.3417 and 29.1931 and 35.2401 and 27.4328 and 27.4461 and 34.6615 and 20.0846 and 24.5419 and 29.6463 and 23.9316 and 26.0874 and 20.4241
- response at Log[drug], M -9 (FigS4e) (hCB1 [2]; Log[drug], M = -9, individual replicates): 11.2308 and 14.9426 and 16.0188 and 14.8879 and 7.81 and 6.201 and 6.046 and 5.165 and 11.416 and 8.011 and 9.8505 and 11.4417
- response, replicate values of concentration-response curve (FigS7f) (hCB1 [2]; Log[drug], M = -9.52): -8.017 and 13.4427 and 7.219 and 1.3736
- response at Log[drug], M -9.52 (FigS4e) (hCB1 [2]; Log[drug], M = -9.52, individual replicates): 4.318 and 6.954 and 4.569 and 9.019 and 2.48 and 0.9701 and 1.146 and -0.2947 and 2.2712 and 3.563 and 2.22 and 2.613
- response, replicate values of concentration-response curve (FigS7f) (hCB1 [2]; Log[drug], M = -10): -5.634 and 19.8566 and -6.166 and -19.951 and 12.6927 and 1.918 and 26.5806 and 27.9648 and -15.2597 and 16.5278 and -42.7439 and -28.9284
- response at Log[drug], M -10 (FigS4e) (hCB1 [2]; Log[drug], M = -10, individual replicates): 4.678 and 4.596 and 5.116 and 5.805 and 0.4668 and 1.099 and -0.9271 and 0.03226 and 4.179 and 1.0137 and 3.024 and 3.033
- response at Log[drug], M -10.52 (FigS4e) (hCB1 [2]; Log[drug], M = -10.52, individual replicates): 3.333 and 5.039 and 5.463 and 7.136 and 2.136 and 1.073 and 1.405 and 1.689 and 0.06416 and 3.135 and 1.262 and 0.6116
- response at Log[drug], M -11 (FigS4e) (hCB1 [2]; Log[drug], M = -11, individual replicates): 2.02 and 1.728 and 3.648 and 1.714 and 2.136 and 0.5313 and 2.282 and 1.392 and 2.442 and 2.186 and 2.656 and 2.784
- response at Log[drug], M -11.52 (FigS4e) (hCB1 [2]; Log[drug], M = -11.52, individual replicates): 0.1596 and 0.8162 and 2.015 and 2.59 and 0.7808 and -0.157 and 2.17 and 1.37 and 0.3122 and 1.493 and -1.27 and 0.3892
- response at Log[drug], M -12 (FigS4e) (hCB1 [2]; Log[drug], M = -12, individual replicates): -1.281 and 1.1992 and 0.1003 and -0.01824 and -0.4194 and -1.323 and 0.4797 and 1.263 and -0.586 and -0.201 and 1.578 and -0.7913
- Tango ß-arrestin recruitment pEC50 (hCB1 [2]; hCB1): 8.0 [7.9 – 8.1]
- EC50 (hCB1 [2]; hCB1, read-out: Tango ß-arrestin recruitment EC50): 10.7 nM
- EC50 (hCB1 [3]): 3.3 nM
- Lance Ultra cAMP pEC50 (hCB1 [3]): 8.5 [8.3 – 8.7]
- Emax (hCB1 [3]; CHO): 78%
- BRET2 + GoA pEC50 (hCB2): 8.1 [7.4 – 8.8]
- Emax (hCB2; HEK-293T): 29%
- functional response, concentration-response point (FigS7e, normalized) (hCB2; M = -5.52): 35.163 and 34.5195 and 37.1398 and 45.2359 and 22.1885 and 20.0253 and 22.0647 and 22.44 and 27.1274 and 29.7176 and 29.0627 and 31.2724
- functional response, concentration-response point (FigS7e, normalized) (hCB2; M = -6): 29.7877 and 33.9492 and 29.5334 and 25.2255 and 15.8228 and 16.2963 and 15.9211 and 20.153 and 25.0506 and 24.2718 and 28.0892 and 24.4694
- functional response, concentration-response point (FigS7e, normalized) (hCB2; M = -6.52): 26.0116 and 28.0846 and 25.607 and 31.5062 and 14.9093 and 14.0547 and 17.0527 and 13.1077 and 21.8115 and 21.8852 and 20.2922 and 24.9916
- functional response, concentration-response point (FigS7e, normalized) (hCB2; M = -7): 24.1274 and 22.8405 and 29.7761 and 21.8695 and 14.0743 and 11.9997 and 13.5282 and 12.4358 and 19.7258 and 19.481 and 19.1064 and 19.4486
- functional response, concentration-response point (FigS7e, normalized) (hCB2; M = -7.52): 23.5957 and 22.9137 and 20.3707 and 18.5906 and 11.4339 and 9.937 and 10.3691 and 10.8406 and 16.0355 and 14.8408 and 13.0297 and 14.2214
- functional response, concentration-response point (FigS7e, normalized) (hCB2; M = -8): 12.8343 and 12.3797 and 11.0928 and 9.008 and 8.006 and 4.9629 and 4.745 and 4.187 and 11.3719 and 9.991 and 9.086 and 7.272
- functional response, concentration-response point (FigS7e, normalized) (hCB2; M = -8.52): 3.796 and 2.717 and 4.595 and 4.6603 and 1.822 and 2.459 and 1.412 and 2.158 and 3.296 and 4.616 and 3.0209 and 3.939
- functional response, concentration-response point (FigS7e, normalized) (hCB2; M = -11.52): -0.1711 and -0.00125 and 0.5633 and 1.428
- functional response, concentration-response point (FigS7e, normalized) (hCB2; M = -12): 0.1237 and -0.6757 and -0.301 and 0.8531 and -0.1904 and 0.4719 and -0.17 and -0.1114 and 0.2132 and -0.01243 and 0.1138 and -0.3146
- pKi [95% CI] (CB1 (rCB1); rCB1): 8.7 [8.6 – 8.9]
- Ki (CB1 (rCB1); read-out: Ki [95% CI], rCB1, [3H]-CP-55,940): 1.9 nM and 1.86 nM
